Our source for the Mortality, mortality and Controlling effect values is patent publication US7655677B2, “Composition and method for controlling house insect pest” (priority 2002, dated 2010).

A word on the mortality: it is the share of the test organisms that died.

Holding throughout (format): in vivo
The test system of data set [1] is Coptotermes formosanus. Put plainly: Test Example 24: treated filter paper in Petri dish, termite mortality on 21st or 28th day. The method, then:
(§1) Mortality (%)=(Number of dead termite workers/15 termite workers)×100
(§2) Further, by the Colby's formula, the theoretical value (%) of mortality can be calculated. In a case where the actual mortality (%) is higher than the theoretical value (%), it can be said that the composition of the present invention has a synergistic effect for controlling the house insect pest.
A filter paper having a diameter of 80 mm was placed in a plastic Petri dish, and 1 ml of a pesticide solution having a predetermined concentration was dropped thereon, whereupon 10 termite workers (Coptotermes formosanus) were released, and a cover was put on the Petri dish. This plastic Petri dish was put in a container having wet cotton laid over the bottom and maintained at room temperature of 25° C. On 21 or 28th day after the treatment, the number of dead termites in the Petri dish was examined, and the mortality was calculated in the same manner as Test Example 1.

Data set [2] relates to Reticulitermes speratus. The data set can be described thus: Test Example 3: treated filter paper in Petri dish, termite mortality after 37 days. As to conditions: Reticulitermes speratus, 888 h. The procedure:
as §1, §2
(§3) A filter paper having a diameter of 80 mm was placed in a plastic Petri dish, and 1 ml of a pesticide solution having a predetermined concentration, was dropped thereon. After the treatment, the solvent was sufficiently evaporated, and then, 1 ml of distilled water was impregnated to the treated filter paper, whereupon 10 termite workers (Reticulitermes speratus) were released. The plastic Petri dish was placed in a container having wet cotton laid over the bottom, and the container was maintained at 25° C. for 37 days, whereupon the number of dead termites in the Petri dish was examined, and the mortality was calculated in the same manner as in Test Example 1.

Data set [3] has as its system Reticulitermes speratus. Put plainly: Test Example 1: treated filter paper in Petri dish, termite mortality after 13 days. As to conditions: 312 h. The procedure: as §3, with “predetermined concentration” for “predetermined concentration,”, “whereupon 15” for “whereupon 10”, “workers and one termite soldier” for “workers”, “for 13” for “for 37”, “calculated by” for “calculated in”, “the following formula.” for “the same manner as in Test Example 1.”
as §1, §2

Data set [4] has as its system Coptotermes formosanus. The data set can be described thus: Test Example 5: treated filter paper in acrylic cup, termite mortality after 7 days. As to conditions: 168 h. The method, then:
(§4) A filter paper having a diameter of 80 mm was placed in a cylindrical cup made of acrylic resin having a diameter of 80 mm and a height of 60 mm (i.e. a cup having a hole with a diameter of 10 mm formed in the bottom and having hard plaster (Dental Stone) set at the bottom in a thickness of 10 mm), and 1 ml of a solution containing a sample compound in a predetermined concentration, was dropped thereon. Then, nine termite workers and one termite soldier (Coptotermes formosanus) were released thereon. The cup was placed in a container having wet cotton laid over the bottom, and the container was maintained at room temperature of 25° C. for 7 days, whereupon the mortality of termites in the cup was examined.

Data set [5] concerns Reticulitermes speratus. Put plainly: Test Example 6: treated filter paper in acrylic cup, termite mortality after 7 days. As to conditions: 168 h. The method, then: as §4, with “ten” for “nine”, “(Reticulitermes speratus)” for “(Coptotermes formosanus)”
For data set [6], the system named is Priplaneta americana. The data set can be described thus: Test Example 12: mouse feed poison bait, mortality with time. As to conditions: bait 1%. The procedure:
1 g of feeding stuff for mice was treated with 0.5 ml of an acetone solution containing 10 mg of a sample compound and put in a constant temperature chamber at 40° C. for 20 hours to sufficiently evaporate acetone, whereby a poison bait chemical containing 1% of the sample compound was prepared. Then, this poison bait chemical was put into a cup together with a wet cotton, and 10 […] (Priplaneta americana) were released and kept at 25° C. in a breeding room, whereby the mortality was examined as the time passed.

The test system of data set [7] is Reticulitermes speratus. Put plainly: Test Example 9: treated filter paper in acrylic cup, termite mortality 5 and 20 days later. The conditions noted are these: 1000 ppm. The method, then:
as §4, with “ten” for “nine”, “(Reticulitermes speratus)” for “(Coptotermes formosanus)”, “C., and 5 days later and 20 days later,” for “C. for 7 days, whereupon”

Data set [8] has as its system Lasius japonicus. The data set can be described thus: Test Example 11: powdered skim milk poison bait, controlling effect on ants 4 days later. The conditions noted are these: bait concentration 1%. The method, then:
1 g of powdered skim milk was treated with 1 ml of an acetone solution containing 10 mg of a sample compound and put in a constant temperature chamber at 40° C. for 20 hours to sufficiently evaporate acetone. In this manner, a poison bait chemical containing 1% of an active ingredient compound, was prepared. Then, this poison bait chemical was put into a cup together with a wet cotton, and 15 ants (Lasius japonicus) were released. 4 Days later, the mortality was examined. Here, when the mortality 4 days later was at least 40%, the controlling effect was rated to be positive.

Data set [9] concerns Reticulitermes speratus. Put plainly: Test Example 2: treated filter paper in Petri dish, termite mortality after 17 days. The conditions noted are these: 408 h. The method, then: as §1, §2
as §3, with “evaporated” for “evaporated,”, “15” for “10”, “workers and one termite soldier” for “workers”, “17 days. Then,” for “37 days, whereupon”

In the case of `Cc1c(COC(=O)[C@@H]2[C@H](/C=C(\Cl)C(F)(F)F)C2(C)C)cccc1-c1ccccc1` (racemic) [Bifenthrin], the Mortality in [1] (Bifenthrin 0.25 ppm alone, 28th day) is on record as 0%. In [1] (Coptotermes formosanus), the mortality at 0.25 ppm stood at 0%, the mortality at 0.5 ppm stood at 10% and the mortality at 1 ppm turned out to be 40%.
As to `O=C(NC(=O)c1c(F)cccc1F)Nc1cc(Cl)c(Oc2ncc(C(F)(F)F)cc2Cl)c(Cl)c1` [Chlorfluazuron], the figures for the mortality at 500 ppm in data set [2] (Chlorfluazuron 500 ppm alone) and in [1] (Coptotermes formosanus) were 30% and 20%, respectively. Further, the values for the mortality at 1000 ppm in data set [2] (Chlorfluazuron 1000 ppm alone), in [1] (Coptotermes formosanus) and in [3] were 50%, 30% and 0%, respectively. For the same compound, the mortality at 2000 ppm in data set [2] (Chlorfluazuron 2000 ppm alone) came to 50%; in data set [1] (Coptotermes formosanus) it was 30%; in [3], 33%. In addition, the mortality at 4000 ppm in data set [2] (Chlorfluazuron 4000 ppm alone) was found to be 50%; in data set [3] it was 53%. Also, the mortality at 8000 ppm in data set [3] was 60%.
Consider `CCOP(=S)(OCC)Oc1nc(Cl)c(Cl)cc1Cl` [Chlorpyrifos, reference compound], for which the mortality at 500 ppm in data set [4] came out at 100%. The mortality at 1000 ppm in [4] and in data set [5] was 100% in each case. The Mortality in data set [6] (1 Day later), in data set [6] (8 Days later) and in data set [6] (48 Days later) was 100% throughout.
As to `CC(=NN=C(Cc1ccc(C(F)(F)F)cc1)c1ccc(Cl)cc1)N(C)C` [Compound No. II-1, [4′-chloro-2-(4-trifluoromethylphenyl)acetophenone]N′-[1-(dimethylamino)ethylidene]hydrazone], the Mortality in data set [7] (5 Days later) came to 0%; in [7] (20 Days later), 100%.
Regarding `CCOC(=O)NN=C(Cc1ccc(C(F)(F)F)cc1)c1ccc(Cl)cc1` [Compound No. II-3], the Mortality in data set [7] (5 Days later) was determined as 0%; in [7] (20 Days later) it was 100%; in data set [6] (1 Day later), 0%; in [6] (8 Days later), 100%; in data set [6] (48 Days later), 100%.
As for `CC(=NN=C(Cc1ccc(C(C)(C)C)cc1)c1ccc(C)cc1)N(C)C` [Compound No. II-6, [4′-methyl-2-(4-tert-butylphenyl)acetophenone]N′-[1-(dimethylamino)ethylidene]hydrazone], the Controlling effect result in data set [8] is given as “Positive (when the mortality 4 days later was at least 40%, the controlling effect was rated to be positive)”. Also, the Mortality is given as 70% in [7] (5 Days later) and 100% in [7] (20 Days later).
For the compound `CC(N)=NN=C(Cc1ccc(C(F)(F)F)cc1)c1ccc(Cl)cc1` [Compound No. II-7, [4′-chloro-2-(4-trifluoromethylphenyl)acetophenone]N′-[1-aminoethylidene]hydrazone], the Mortality in data set [7] (5 Days later) and in data set [7] (20 Days later) was 100% in each case.
For the compound `O=C(NC(=O)c1c(F)cccc1F)Nc1cc(Cl)c(OC(F)(F)C(F)F)c(Cl)c1` [Hexaflumuron], in data set [9], the mortality at 1000 ppm was determined as 40%, the mortality at 2000 ppm turned out to be 40%, the mortality at 4000 ppm is 20% and the mortality at 8000 ppm was found to be 33%.
